Measured values: paper PMC6099591, “(2E,5E)-2,5-Bis(3-hydroxy-4-methoxybenzylidene) cyclopentanone Exerts Anti-Melanogenesis and Anti-Wrinkle Activities in B16F10 Melanoma and Hs27 Fibroblast Cells” (Molecules : A Journal of Synthetic Chemistry and Natural …, 2018)

Assays:
[1] = molecular target: Mushroom tyrosinase (EC 1.14.18.1) (Agaricus bisporus, UniProt C7FF04); assay: Kinetic analysis of tyrosinase inhibition (Lineweaver-Burk and Dixon plots); type: biochemical; conditions: Lineweaver-Burk plot
Source text: Furthermore, the mechanism responsible for tyrosinase inhibition by BHCP was investigated by enzyme kinetic analysis in the present study (Table 1 and Figure 2). Lineweaver–Burk plots were drawn using the data obtained from the kinetic studies, and the inhibition constant (Ki) was obtained from the Dixon plots. The Lineweaver–Burk double reciprocal plots indicated competitive-type inhibition. […] Moreover, intercepts on the x-axis of Dixon plots are commonly used to determine the types of enzyme inhibition constants (Ki) for an enzyme–inhibitor complex, where the value of the x-axis indicates the value of −Ki.
Figure 2 Lineweaver–Burk (a,c) and Dixon (b,d) plots for tyrosinase enzyme inhibition by BHCP. […]
To determine the kinetic mechanisms, two kinetic methods (Lineweaver–Burk and Dixon plots) were complementarily used. For the Lineweaver–Burk double reciprocal plots (a plot of 1/enzyme velocity (1/V) versus 1/substrate concentration (1/[S])), the inhibition type was determined using various concentrations of L-tyrosine (1, 2, and 4 mM) and L-DOPA (0.5, 1, and 2 mM) as substrates in the presence of different concentrations of BHCP. […]

B16F10 melanoma cells [2] = assay: Cell viability, EZ-Cytox assay, B16F10; type: cell-based, murine; conditions: up to 10 µM, 48 h
Protocol: (§1) Figure 3 Cell viability of BHCP on B16F10 melanoma (a) and Hs27 fibroblast cells (b). Cells were treated with various concentrations (0–10 μM) of BHCP for 24 h and 48 h, respectively, and cell viability was measured by EZ-Cytox assay.
(§2) The viability of cells was assessed using the EZ-Cytox kit assay. In brief, B16F10 cells and Hs27 fibroblasts were seeded into a 96-well plate at a density of 1 × 10^4 cells/well and incubated at 37 °C for 24 h. The cells were fed fresh, serum-free DMEM that contained different concentrations (0, 1, 2, 5, and 10 µM) of BHCP, and incubated for 24 and 48 h. Subsequently, 10 μL of EZ-Cytox solution was loaded into each well and the cells were incubated for 2–4 h. The absorbance measurement of cells in the absence of any treatment was regarded as 100% cell survival. Each treatment was performed in triplicate and each experiment was repeated three times.

Hs27 fibroblast cells = assay: Cell viability, EZ-Cytox assay, Hs27; type: cell-based, human; conditions: up to 10 µM, 48 h
Protocol: as §1, §2

B16F10 melanoma cells [3] = assay: Melanin content in α-MSH-induced B16F10 cells; type: cell-based, murine; conditions: 24 h pretreatment then α-MSH (5 µM) 48 h, α-MSH only control 186%
Protocol: (§3) Figure 4 Inhibition of melanin contents (a) and cellular tyrosinase activity (b) of BHCP on B16F10 melanoma cells. […] Melanin content of the pellet was evaluated at 405 nm (a); intracellular tyrosinase activity was determined with L-DOPA as the substrate, and the absorbance of L-DOPA chrome was read at 492 nm (b). Data are expressed as mean ± S.E.M of three independent experiments. One-way ANOVA was used to determine the significances of differences: ^# p < 0.05 compared to the control group without α-MSH treatment. ** p < 0.01 and * p < 0.05 compared to the α-MSH-treated control group.
The effect of BHCP on α-MSH-induced melanogenesis in B16F10 cells was based on a previously used method with slight modifications. Briefly, B16F10 cells (5 × 10^4 cells/well) in 6-well plates were allowed to grow to 70–80% confluence. […] After treatment, the cells were washed twice with ice-cold PBS, dissolved in 90 µL 1 M NaOH solution including DMSO (5%) at 60 °C for 1 h, and the absorbance was measured at 405 nm with a microplate spectrophotometer (TECAN, Salzburg, Austria). To measure the amount of melanin in the experiment, the rate of inhibition in the treatment groups were calculated from the absorbance of the known concentrations of synthetic melanin, which were corrected to the total amount of protein that was present in the supernatant of the cell lysates. The absorbance of untreated cells was measured in triplicate.

[4] = test system: cellular tyrosinase in B16F10 melanoma cells; assay: Cellular tyrosinase activity assay in α-MSH-induced B16F10 cells; type: cell-based, murine; conditions: 24 h pretreatment then α-MSH (5 µM) 48 h, α-MSH only control 181%
Protocol: as §3
Cellular tyrosinase activity assay was performed by measuring the rate of oxidation of L-DOPA [35]. B16F10 cells at a density of 5 × 10^4/cells were placed in 6-well dishes and incubated overnight. […] The cells were washed with PBS and lysed in a solution containing 100 µL of 50 mM phosphate buffer (pH 6.5), 0.1 mM phenylmethylsulfonylfluoride (PMSF), and 1% Triton X-100. Then, the cells were placed in a deep freezer machine (−80 °C) for 30 min. After defrosting the cells, the cellular extracts were purified by centrifugation at 12,000 rpm for 30 min at 4 °C. A total of 80 µL the supernatant and 20 µL of L-DOPA (2 mg/mL) were added to a 96-well plate, and the absorbance at a wavelength of 492 nm was measured every 10 min during 1 h at 37 °C with an ELISA plate reader (TECAN, Salzburg, Austria).

tyrosinase = assay: Western blot, tyrosinase protein level in α-MSH-stimulated B16F10 cells; type: cell-based, murine; conditions: 1 and 10 µM, 24 h, then α-MSH (5 µM) 48 h; normalized by β-actin
Protocol: (§4) Figure 5 Effects of BHCP on the expression levels of phosphorylation of CREB, MITF, and tyrosinase in α-MSH-stimulated B16F10 melanoma cells. Cells were preincubated with or without 1 and 10 μM BHCP for 24 h and were stimulated with α-MSH (5 μM) for an additional 48 h. Harvested cells were lysed and then examined for the expression levels of p-CREB, CREB, MITF, and tyrosinase by Western blotting (a); The protein levels of tyrosinase (b); MITF (c); and p-CREB (d) were quantitated with CS analyzer software. Tyrosinase, MITF, and p-CREB protein levels were normalized by β-actin. Data are expressed as mean ± S.E.M. of three independent experiments. ^# p < 0.05 versus untreated control; * p < 0.05 versus α-MSH stimulation.
(§5) Lysate samples were boiled for 10 min in gel-loading buffer (125 mM Tris-HCl, 4% sodium dodecyl sulfate (SDS), 10% 2-mercaptoethanol, and 0.2% bromophenol blue; pH 6.8) at a volume ratio of 1:1. The total protein equivalents for each sample were separated by SDS-polyacrylamide gel electrophoresis (PAGE) using acrylamide gels as based on the procedure described by Laemmli and transferred to PVDF membranes at 80 V for 2 h using the wet-transfer system. […] Antibody labeling was detected by enhanced chemiluminescence in accordance with the manufacturer’s instructions. Protein quantitation was performed using the Davinch-Chemi TM. […]

MITF = assay: Western blot, MITF protein level in α-MSH-stimulated B16F10 cells; type: cell-based, murine; conditions: 1 and 10 µM, 24 h, then α-MSH (5 µM) 48 h; normalized by β-actin
Protocol: as §4, §5

p-CREB = assay: Western blot, phosphorylation of CREB in α-MSH-stimulated B16F10 cells; type: cell-based, murine; conditions: 1 and 10 µM, 24 h, then α-MSH (5 µM) 48 h
Protocol: as §4, §5

p-p65 (Ser536) = assay: Western blot, nuclear p-p65 (Ser536) in UV-induced Hs27 cells; type: cell-based, human; conditions: 1 and 10 µM, 24 h, then UV (50 mJ/cm2) 24 h; normalized to TFIIB
Protocol: (§6) Figure 6 Effects of BHCP on the expression levels of p-p65 (Ser536) in UV-induced Hs27 human fibroblast cells. Cells were preincubated with or without 1 and 10 μM BHCP for 24 h and were stimulated with UV (50 mJ/cm^2) for an additional 24 h. Nuclear protein levels of p-p65 (Ser536) were determined by Western blotting (a); After normalization to TFIIB, relative ratios were quantitated with CS analyzer software (b); Cytosol protein levels of p65 was determined by Western blotting (c); After normalization to β-actin, ratios were quantitated with CS analyzer software (d). Data are expressed as mean ± S.E.M. of three independent experiments. ^# p < 0.05 versus untreated control; * p < 0.05 and ** p < 0.01 versus […].
(§7) The Hs27 cells were washed with ice-cold PBS and harvested. […]
(§8) Lysate samples were boiled for 10 min in gel-loading buffer (125 mM Tris-HCl, 4% sodium dodecyl sulfate (SDS), 10% 2-mercaptoethanol, and 0.2% bromophenol blue; pH 6.8) at a volume ratio of 1:1. […] Antibody labeling was detected by enhanced chemiluminescence in accordance with the manufacturer’s instructions. Protein quantitation was performed using the Davinch-Chemi TM. […]

p65 = assay: Western blot, cytosol p65 in UV-induced Hs27 cells; type: cell-based, human; conditions: 1 and 10 µM, 24 h, then UV (50 mJ/cm2) 24 h; normalized to β-actin
Protocol: as §6, §7, §8

MMP-1 = assay: Western blot, MMP-1 expression in UV-induced Hs27 cells; type: cell-based, human; conditions: 1 and 10 µM, 24 h, then UV (50 mJ/cm2) 24 h
Protocol: (§9) Figure 7 Effects of BHCP on the expression levels of MMP-1, MMP-9, MMP-12, and MMP-13 in UV-induced Hs27 human fibroblast cells. Cells were preincubated with or without 1 and 10 μM BHCP for 24 h and were stimulated with UV (50 mJ/cm^2) for an additional 24 h. Harvested cells were lysed and then examined for the expression levels of MMP-1, MMP-9, MMP-12, and MMP-13 by Western blotting (a); The protein levels of MMP-1 (b); MMP-9 (c); MMP-12 (d); and MMP-13 (e) were quantitated with CS analyzer software. MMP-1, MMP-9, MMP-12, and MMP-13 protein levels were normalized by β-actin. Data are expressed as mean ± S.E.M. of three independent experiments. ^# p < 0.05 versus untreated control; * p < 0.05 versus UV stimulation.
as §5

MMP-9 = assay: Western blot, MMP-9 expression in UV-induced Hs27 cells; type: cell-based, human; conditions: 1 and 10 µM, 24 h, then UV (50 mJ/cm2) 24 h
Protocol: as §9, §5

MMP-12 = assay: Western blot, MMP-12 expression in UV-induced Hs27 cells; type: cell-based, human; conditions: 1 and 10 µM, 24 h, then UV (50 mJ/cm2) 24 h
Protocol: as §9, §5

MMP-13 = assay: Western blot, MMP-13 expression in UV-induced Hs27 cells; type: cell-based, human; conditions: 1 and 10 µM, 24 h, then UV (50 mJ/cm2) 24 h
Protocol: as §9, §5

Chain of Mushroom tyrosinase (EC 1.14.18.1) (G1K3P4 entry or part of it): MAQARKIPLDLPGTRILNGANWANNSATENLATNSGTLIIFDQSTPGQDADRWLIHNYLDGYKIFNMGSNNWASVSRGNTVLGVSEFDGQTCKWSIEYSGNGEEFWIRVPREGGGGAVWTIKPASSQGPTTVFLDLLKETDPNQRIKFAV
Chain of Mushroom tyrosinase (EC 1.14.18.1) (C7FF04 1-392): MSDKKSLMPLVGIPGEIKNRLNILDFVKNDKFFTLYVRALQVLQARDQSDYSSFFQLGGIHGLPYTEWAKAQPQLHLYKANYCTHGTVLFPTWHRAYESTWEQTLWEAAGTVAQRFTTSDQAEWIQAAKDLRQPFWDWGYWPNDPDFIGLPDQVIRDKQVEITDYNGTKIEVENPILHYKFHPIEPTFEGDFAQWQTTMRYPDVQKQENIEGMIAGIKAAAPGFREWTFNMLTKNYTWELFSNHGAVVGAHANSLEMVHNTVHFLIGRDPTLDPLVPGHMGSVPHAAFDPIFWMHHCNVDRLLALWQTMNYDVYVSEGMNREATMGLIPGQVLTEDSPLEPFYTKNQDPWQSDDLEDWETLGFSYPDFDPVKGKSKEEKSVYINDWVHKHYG

COc1ccc(/C=C2\CC/C(=C\c3ccc(OC)c(O)c3)C2=O)cc1O [BHCP, (2E,5E)-2,5-bis(3-hydroxy-4-methoxybenzylidene)cyclopentanone]
Inhibition Type (L-DOPA) ([1]; substrate L-DOPA): competitive inhibitor
Inhibition Type (L-Tyrosine) ([1]; substrate L-tyrosine): competitive inhibitor
Cell viability (survival) of B16F10 cells (B16F10 melanoma cells [2]): did not reduce the survival
Cell viability (survival) of Hs27 cells (Hs27 fibroblast cells): did not reduce the survival
Melanin content (B16F10 melanoma cells [3]; 1 µM): 113%
Melanin content (B16F10 melanoma cells [3]; 5 µM): 106%
Melanin content (B16F10 melanoma cells [3]; 10 µM): 102%
Cellular tyrosinase activity ([4]; 1 µM): 120%
Cellular tyrosinase activity ([4]; 5 µM): 116%
Cellular tyrosinase activity ([4]; 10 µM): 105%
Tyrosinase protein level (tyrosinase): decreased these protein levels
MITF protein level (MITF): decreased these protein levels
Phosphorylation of CREB (p-CREB): significantly suppressed
Nucleus p-p65 (Ser536) protein level (p-p65 (Ser536)): decreased
Total p65 in the cytoplasm (p65): restored
MMP-1 expression (MMP-1): decreased expression in a dose-dependent manner
MMP-9 expression (MMP-9): decreased expression in a dose-dependent manner
MMP-12 expression (MMP-12): decreased expression in a dose-dependent manner
MMP-13 expression (MMP-13): decreased expression in a dose-dependent manner

O=c1cc(CO)occ1O [Kojic acid, reference compound]
Cellular tyrosinase activity [4]: 131%
